Results from PubChem BioAssay (NCI).
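Following 48 hours of exposure in 96-well plates, responses at five concentrations were used to interpolate endpoints linearly. Here, GI50 denotes the concentration required for 50% inhibition of growth. TGI is the concentration that stops growth completely.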

Key:
Assay in all cases: NCI tumour cell line growth inhibition, 48 h
HOP-62 NSCLC = system: HOP-62 NSCLC
HOP-92 NSCLC = system: HOP-92 NSCLC
HCT-15 colon = system: HCT-15 colon
SK-MEL-2 melanoma = system: SK-MEL-2 melanoma
EKVX NSCLC = system: EKVX NSCLC
U251 CNS = system: U251 CNS
T-47D breast = system: T-47D breast
RPMI-8226 leukemia = system: RPMI-8226 leukemia
PC-3 prostate = system: PC-3 prostate
NCI-H226 lung = system: NCI-H226 lung
MDA-MB-435 = system: MDA-MB-435
SF-539 CNS = system: SF-539 CNS
UACC-257 melanoma = system: UACC-257 melanoma
KM12 colon = system: KM12 colon
IGROV1 ovarian = system: IGROV1 ovarian
DU-145 prostate = system: DU-145 prostate
OVCAR-5 ovarian = system: OVCAR-5 ovarian
SF-268 CNS = system: SF-268 CNS
OVCAR-4 ovarian = system: OVCAR-4 ovarian
UO-31 renal = system: UO-31 renal
SF-295 CNS = system: SF-295 CNS
HS 578T breast = system: HS 578T breast
M14 melanoma = system: M14 melanoma
CCRF-CEM leukemia = system: CCRF-CEM leukemia
TK-10 renal = system: TK-10 renal
SNB-19 CNS = system: SNB-19 CNS
NCI/ADR-RES ovarian = system: NCI/ADR-RES ovarian
SNB-75 CNS = system: SNB-75 CNS
OVCAR-3 ovarian = system: OVCAR-3 ovarian
HCT-116 colon = system: HCT-116 colon
UACC-62 melanoma = system: UACC-62 melanoma
NCI-H460 lung = system: NCI-H460 lung
SR leukemia = system: SR leukemia
RXF 393 renal = system: RXF 393 renal
NCI-H23 lung = system: NCI-H23 lung
SK-MEL-28 melanoma = system: SK-MEL-28 melanoma
A498 renal = system: A498 renal
MOLT-4 leukemia = system: MOLT-4 leukemia
BT-549 breast = system: BT-549 breast
MALME-3M melanoma = system: MALME-3M melanoma
LOX IMVI melanoma = system: LOX IMVI melanoma
ACHN renal = system: ACHN renal
MCF7 breast = system: MCF7 breast
SW-620 colon = system: SW-620 colon
786-0 renal = system: 786-0 renal
HCC-2998 colon = system: HCC-2998 colon
HL-60(TB) leukemia = system: HL-60(TB) leukemia
NCI-H522 lung = system: NCI-H522 lung
A549 NSCLC = system: A549 NSCLC
OVCAR-8 ovarian = system: OVCAR-8 ovarian
SK-MEL-5 melanoma = system: SK-MEL-5 melanoma
CAKI-1 renal = system: CAKI-1 renal
SK-OV-3 ovarian = system: SK-OV-3 ovarian
HT29 colon = system: HT29 colon
MDA-MB-231 breast = system: MDA-MB-231 breast
COLO 205 colon = system: COLO 205 colon
K-562 leukemia = system: K-562 leukemia
SN12C renal = system: SN12C renal

C=CC(=O)Nc1cccc(C)c1Nc1cc(-c2cccnc2Cc2c(C)c(OC)cc(OC)c2C)ncn1
GI50 (HOP-62 NSCLC): 19 µM | TGI (HOP-62 NSCLC): 75.7 µM | GI50 (HOP-92 NSCLC): 9.91 µM | TGI (HOP-92 NSCLC): 47.3 µM | GI50 (HCT-15 colon): 14.4 µM | TGI (HCT-15 colon): 47.2 µM | GI50 (SK-MEL-2 melanoma): 12.6 µM | TGI (SK-MEL-2 melanoma): 32.4 µM | GI50 (EKVX NSCLC): 28.8 µM | TGI (EKVX NSCLC): > 100 µM | GI50 (U251 CNS): 6.26 µM | TGI (U251 CNS): 30 µM | GI50 (T-47D breast): 7.92 µM | TGI (T-47D breast): > 100 µM | GI50 (RPMI-8226 leukemia): 3.37 µM | TGI (RPMI-8226 leukemia): 24.9 µM | GI50 (PC-3 prostate): 5.65 µM | TGI (PC-3 prostate): > 100 µM | GI50 (NCI-H226 lung): 10.5 µM | TGI (NCI-H226 lung): 63 µM | GI50 (MDA-MB-435): 12.1 µM | TGI (MDA-MB-435): 31.3 µM | GI50 (SF-539 CNS): 3.47 µM | TGI (SF-539 CNS): 38.2 µM | GI50 (UACC-257 melanoma): 23.7 µM | TGI (UACC-257 melanoma): > 100 µM | GI50 (KM12 colon): 13.4 µM | TGI (KM12 colon): 34.2 µM | GI50 (IGROV1 ovarian): 14.2 µM | TGI (IGROV1 ovarian): 53.9 µM | GI50 (DU-145 prostate): 16.7 µM | TGI (DU-145 prostate): > 100 µM | GI50 (OVCAR-5 ovarian): 27.4 µM | TGI (OVCAR-5 ovarian): > 100 µM | GI50 (SF-268 CNS): 9.59 µM | TGI (SF-268 CNS): 60.3 µM | GI50 (OVCAR-4 ovarian): 20.6 µM | TGI (OVCAR-4 ovarian): > 100 µM | GI50 (UO-31 renal): 18.4 µM | TGI (UO-31 renal): > 100 µM | GI50 (SF-295 CNS): 6.47 µM | TGI (SF-295 CNS): 73.9 µM | GI50 (HS 578T breast): 10.6 µM | TGI (HS 578T breast): 68.3 µM | GI50 (M14 melanoma): 22.5 µM | TGI (M14 melanoma): 97.5 µM | GI50 (CCRF-CEM leukemia): 8.26 µM | TGI (CCRF-CEM leukemia): > 100 µM | GI50 (TK-10 renal): 10.8 µM | TGI (TK-10 renal): 99.4 µM | GI50 (SNB-19 CNS): 7.04 µM | TGI (SNB-19 CNS): 43.1 µM | GI50 (NCI/ADR-RES ovarian): 9.9 µM | TGI (NCI/ADR-RES ovarian): 38 µM | GI50 (SNB-75 CNS): 13.2 µM | TGI (SNB-75 CNS): 91.2 µM | GI50 (OVCAR-3 ovarian): 7.04 µM | TGI (OVCAR-3 ovarian): 38.9 µM | GI50 (HCT-116 colon): 16.6 µM | TGI (HCT-116 colon): 44.6 µM | GI50 (UACC-62 melanoma): 10.3 µM | TGI (UACC-62 melanoma): 25.9 µM | GI50 (NCI-H460 lung): 4.91 µM | TGI (NCI-H460 lung): 31.7 µM | GI50 (SR leukemia): 4.41 µM | TGI (SR leukemia): > 100 µM | GI50 (RXF 393 renal): 2.52 µM | TGI (RXF 393 renal): 7.89 µM | GI50 (NCI-H23 lung): 12.7 µM | TGI (NCI-H23 lung): 47.3 µM | GI50 (SK-MEL-28 melanoma): 16.9 µM | TGI (SK-MEL-28 melanoma): 69.2 µM | GI50 (A498 renal): 1.93 µM | TGI (A498 renal): 9.44 µM | GI50 (MOLT-4 leukemia): 3.6 µM | TGI (MOLT-4 leukemia): > 100 µM | GI50 (BT-549 breast): 6.23 µM | TGI (BT-549 breast): 29.6 µM | GI50 (MALME-3M melanoma): 17.8 µM | TGI (MALME-3M melanoma): 49 µM | GI50 (LOX IMVI melanoma): 6.12 µM | TGI (LOX IMVI melanoma): 19.8 µM | GI50 (ACHN renal): 17.3 µM | TGI (ACHN renal): > 100 µM | GI50 (MCF7 breast): 5.27 µM | TGI (MCF7 breast): > 100 µM | GI50 (SW-620 colon): 10.7 µM | TGI (SW-620 colon): 41.7 µM | GI50 (786-0 renal): 10.2 µM | TGI (786-0 renal): 39.6 µM | GI50 (HCC-2998 colon): 16 µM | TGI (HCC-2998 colon): 30.6 µM | GI50 (HL-60(TB) leukemia): 5.22 µM | TGI (HL-60(TB) leukemia): 48.9 µM | GI50 (NCI-H522 lung): 11.6 µM | TGI (NCI-H522 lung): 36.2 µM | GI50 (A549 NSCLC): 16.2 µM | TGI (A549 NSCLC): > 100 µM | GI50 (OVCAR-8 ovarian): 12 µM | TGI (OVCAR-8 ovarian): 50 µM | GI50 (SK-MEL-5 melanoma): 10.7 µM | TGI (SK-MEL-5 melanoma): 23.5 µM | GI50 (CAKI-1 renal): 9.97 µM | TGI (CAKI-1 renal): > 100 µM | GI50 (SK-OV-3 ovarian): 34.5 µM | TGI (SK-OV-3 ovarian): > 100 µM | GI50 (HT29 colon): 20.3 µM | TGI (HT29 colon): > 100 µM | GI50 (MDA-MB-231 breast): 5.65 µM | TGI (MDA-MB-231 breast): 70.9 µM | GI50 (COLO 205 colon): 13.1 µM | TGI (COLO 205 colon): > 100 µM | GI50 (K-562 leukemia): 7.55 µM | TGI (K-562 leukemia): > 100 µM | GI50 (SN12C renal): 11.2 µM | TGI (SN12C renal): 64.9 µM
